From paper PMC4820897, “Structural insight in the toppling mechanism of an energy-coupling factor transporter” (Nature Communications, 2016)
Values belong to the molecule of their own block, whether it stands above or below them.

What was measured:
[1] = biological target: T1, ECF–FolT2 (Lactobacillus delbrueckii, UniProt Q1GBI9+Q1GBJ0); experiment: crystal structure […] Å; assay type: binding; details: 10 mM MgCl2; one AMP-PNP bound to each of EcfA and EcfA'; ATPase dimer open
T1 construct: gene ecfA1; full ECF complex EcfA-EcfA'-EcfT-FolT2; N-terminal His10-tag and TEV site on EcfA, C-terminal STREPII tag on FolT2; expressed in E. coli MC1061; nucleotide sites on EcfA and EcfA'; with Energy-coupling factor transporter transmembrane protein EcfT; Folate family ECF transporter S component FolT2

[2] = biological target: T1, ECF–FolT2; experiment: coupled-enzyme ATPase assay in proteoliposomes; assay type: biochemical; details: 1 mM MgATP, 50 mM KPi pH 7.5, 200 mM NaCl, 30 °C
[3] = biological target: T2, FolT2 (Lactobacillus delbrueckii, UniProt Q1G929); experiment: intrinsic fluorescence titration; assay type: binding; details: read-out: dissociation constant
T2 construct: gene Ldb1625; solitary S-component, N-terminal His8-tag, expressed in Lactococcus lactis NZ9000, purified in n-nonyl-beta-D-glucopyranoside

[4] = biological target: T3, ECF–FolT2 (Lactobacillus delbrueckii, UniProt Q1G929); experiment: radiolabelled folate uptake and efflux in proteoliposomes; assay type: biochemical; details: 5 mM luminal MgATP, 100 nM folate, pH 7.5, 25 °C; labelled compound
T3 construct: gene Ldb1625; His10-EcfA, FolT2-STREPII; expressed in E. coli MC1061; reconstituted in proteoliposomes; Energy-coupling factor transporter transmembrane protein EcfT

[5] = biological target: T4, ECF–FolT1 (Lactobacillus delbrueckii, UniProt Q1G930); experiment: radiolabelled folate uptake in proteoliposomes; assay type: biochemical; details: luminal MgATP; labelled compound
T4 construct: gene Ldb1624; full ECF complex EcfA-EcfA'-EcfT-FolT1; His10-EcfA, FolT1-STREPII; expressed in E. coli MC1061; reconstituted in proteoliposomes; Energy-coupling factor transporter transmembrane protein EcfT

[6] = biological target: T5, FolT1 (Lactobacillus delbrueckii, UniProt Q1G930); experiment: intrinsic fluorescence titration; crystal structure […] Å; assay type: binding; details: read-out: dissociation constant
T5 construct: gene Ldb1624; solitary S-component, N-terminal His8-tag, expressed in Lactococcus lactis NZ9000, purified in n-nonyl-beta-D-glucopyranoside

[7] = biological target: T6, FolT1 (Lactobacillus delbrueckii, UniProt Q1G930, Y122N); experiment: intrinsic fluorescence titration; assay type: binding; details: read-out: dissociation constant
T6 construct: gene Ldb1624; solitary S-component, N-terminal His8-tag, expressed in Lactococcus lactis NZ9000, purified in n-nonyl-beta-D-glucopyranoside
T6 sequence (Q1G930 entry or part of it Y122N): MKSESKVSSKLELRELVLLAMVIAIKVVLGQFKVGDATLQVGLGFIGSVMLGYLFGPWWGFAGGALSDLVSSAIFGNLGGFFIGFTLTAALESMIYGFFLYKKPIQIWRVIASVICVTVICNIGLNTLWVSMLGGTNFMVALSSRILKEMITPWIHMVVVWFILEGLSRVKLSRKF

T1 sequence (Q1GBI8 entry or part of it): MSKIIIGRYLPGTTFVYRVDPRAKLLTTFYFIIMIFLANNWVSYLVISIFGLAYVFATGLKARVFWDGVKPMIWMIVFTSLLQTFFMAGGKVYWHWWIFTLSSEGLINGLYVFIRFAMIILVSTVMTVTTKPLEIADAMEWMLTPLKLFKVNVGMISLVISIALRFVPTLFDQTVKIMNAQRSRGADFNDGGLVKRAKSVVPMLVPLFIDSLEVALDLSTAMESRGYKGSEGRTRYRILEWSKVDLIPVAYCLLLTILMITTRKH
T1 sequence (Q1GBJ0 whole entry): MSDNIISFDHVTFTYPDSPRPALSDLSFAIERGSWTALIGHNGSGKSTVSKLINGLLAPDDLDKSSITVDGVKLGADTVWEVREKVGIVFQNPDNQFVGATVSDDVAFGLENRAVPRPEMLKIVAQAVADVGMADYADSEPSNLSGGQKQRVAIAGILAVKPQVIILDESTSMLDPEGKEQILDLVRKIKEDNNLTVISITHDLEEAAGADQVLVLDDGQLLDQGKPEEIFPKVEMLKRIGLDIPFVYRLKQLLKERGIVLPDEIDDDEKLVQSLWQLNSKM
T1 sequence (Q1GBI9 whole entry): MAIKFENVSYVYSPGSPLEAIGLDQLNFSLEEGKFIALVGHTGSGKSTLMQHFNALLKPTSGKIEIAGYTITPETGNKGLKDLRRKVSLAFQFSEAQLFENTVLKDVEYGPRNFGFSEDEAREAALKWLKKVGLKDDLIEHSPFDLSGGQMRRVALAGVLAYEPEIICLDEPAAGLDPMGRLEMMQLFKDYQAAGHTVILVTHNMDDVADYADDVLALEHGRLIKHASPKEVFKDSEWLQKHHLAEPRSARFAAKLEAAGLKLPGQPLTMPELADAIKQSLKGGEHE
T1 sequence (Q1G929 entry or part of it, further chain): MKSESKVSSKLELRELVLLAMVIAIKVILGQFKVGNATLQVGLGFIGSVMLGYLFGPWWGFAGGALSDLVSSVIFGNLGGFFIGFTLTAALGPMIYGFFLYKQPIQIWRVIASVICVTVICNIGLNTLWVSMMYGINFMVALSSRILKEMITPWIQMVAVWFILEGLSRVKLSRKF
T5 sequence (Q1G930 entry or part of it): as the sequence (Q1G930 entry or part of it Y122N) above, with N122Y counted along it
T2 sequence (Q1G929 entry or part of it): as the sequence (Q1G929 entry or part of it, further chain) above
T3 sequence (Q1GBI8 entry or part of it): as the sequence (Q1GBI8 entry or part of it) above
T3 sequence (Q1GBJ0 whole entry, further chain): as the sequence (Q1GBJ0 whole entry) above
T3 sequence (Q1GBI9 whole entry, further chain): as the sequence (Q1GBI9 whole entry) above
T3 sequence (Q1G929 entry or part of it): as the sequence (Q1G929 entry or part of it, further chain) above
T4 sequence (Q1GBJ0 whole entry): as the sequence (Q1GBJ0 whole entry) above
T4 sequence (Q1G930 entry or part of it): as the sequence (Q1G930 entry or part of it Y122N) above, with N122Y counted along it
T4 sequence (Q1GBI9 whole entry, further chain): as the sequence (Q1GBI9 whole entry) above
T4 sequence (Q1GBI8 entry or part of it, further chain): as the sequence (Q1GBI8 entry or part of it) above

Structure (SMILES): Nc1ncnc2c1ncn2[C@@H]1O[C@H](COP(=O)(O)OP(=O)(O)NP(=O)(O)O)[C@@H](O)[C@H]1O [AMP–PNP]
crystal structure 3.3 Å [1]: EcfA and EcfA′ each bind a molecule of the nucleotide

Structure (SMILES): Nc1ncnc2c1ncn2[C@@H]1O[C@H](COP(=O)(O)OP(=O)(O)OP(=O)(O)O)[C@@H](O)[C@H]1O [ATP]
coupled-enzyme ATPase assay in proteoliposomes [2]: we also measured the ATPase activity of ECF–FolT2 in the proteoliposomes

Kd [3]: 3.1 ± 1.4 nM | Kd [6]: 1 ± 0.24 nM | Kd [7]: 2.5 ± 1.2 nM
Structure (SMILES): Nc1nc2ncc(CNc3ccc(C(=O)N[C@@H](CCC(=O)O)C(=O)O)cc3)nc2c(=O)[nH]1 [folate]
radiolabelled folate uptake and efflux in proteoliposomes [4]: ECF transporters indeed translocate their substrates across the membrane | radiolabelled folate uptake in proteoliposomes [5]: Both ECF transporters mediated association of radiolabelled folate with the proteoliposomes
